# According to US8623832B2, “Peptide compositions that bind TLR-4” (The Board of Regents of the University of Oklahoma, priority 2011, dated 2014):
# “Also recorded” adds a separate entry of the source. Where no end group is shown, it is not given here.
# Key:
# NF-κB = NF-κB luciferase reporter activity in LPS-challenged JAWS II dendritic cells; format: cell-based, mouse
# Method: At the molecular level, the effects of SPA4 peptide on LPS-induced NF-κB activity were studied in dendritic cells (JAWS II cells) co-transfected with NFκB luciferase reporter plasmid construct and dominant negative construct of MYD88 (an adaptor protein downstream of TLR4; MYD88DN). Briefly, JAWS II dendritic cells (0.5×10^6) were transfected with NF-κB luciferase reporter and/or MYD88DN using TransIT-TKO transfection reagent as described earlier (Awasthi S et al., 2003). After 20-24 hours of incubation, the transfected cells were challenged with LPS (100 ng/ml) for 4 hours and treated with SPA4 peptide (10 μM) for 1 hour. After the completion of 5 hours incubation, the cell lysates were prepared in cell lysis buffer and NF-κB-luciferase reporter activity was measured as per the manufacturer's instructions (Promega, WI).
# SW480 cells = assay: LPS-stimulated migration of SW480 cells; format: cell-based, human; details: LPS 1.0 μg/ml; SPA4 1, 10 and 50 μM; from 24 hours till 72 hours
# Method: Cell migration: SW480 cells were plated in 30 mm tissue-culture-treated dishes at a density of 1.0×10^6 cells per plate. At 80-90% confluence, a “reference line” was drawn at the bottom of the plate. The cells were scratched off from one side of the reference line using a rubber policeman. A picture was taken at 0 t that helped in marking the “start line”. Cells were then washed with complete medium and incubated with LPS (1.0 μg/ml) and/or SPA4 peptide (1, 10 and 50 μM). Photomicrographs of cells migrated across the “start line” were taken in different fields after each treatment at 24, 48, and 72 hours (±2 hours) following traceable inscriptions made under the plate at three different points, with a Canon digital camera. On 24, 48 and 72 hour images, a second line was drawn along the edge of cells to represent the migration of cells. Cell migration was calculated by measuring the distance cells migrated from the “start line”. Only the continuous migration of cells was considered for measurement. The islets of cells were disregarded. The cell migration was calculated using the following formula: (distance between “start line” at 0 h—“reference line”)-(distance between “72 hours line”—“reference line”).
# TLR4 = TLR4 expression in JAWS II dendritic cells by immunocytochemistry / confocal microscopy; format: cell-based, mouse
# Method: TLR4 expression by immunocytochemistry: The JAWS II-DCs were seeded at a density of 25,000 cells per well of an 8-well chamber slide (Nalge Nunc international, New York, USA). Post-LPS (100 ng/ml) treatment with SPA4 peptide (1 and 10 μM; SEQ ID NO:3) followed, and the cells were fixed for 20 minutes with 3.5% paraformaldehyde prepared in PBS on ice. Permeablization was carried out for 20 minutes on ice with Alpha-MEM medium containing 10% FBS and 0.05% saponin and 10 mM HEPES (Inaba et al., 1998). The cells were washed with PBS supplemented with 1% FBS and 0.05% saponin (wash buffer). Non-specific binding sites were blocked using PBS containing 10% normal mouse serum (Sigma, St Louis, Mo.) for 1 hour at room temperature in a humidified chamber. A rabbit polyclonal antibody to mouse TLR4 (Abcam, Cambridge, Mass.) was added to the cells at a dilution of 1:50 and incubated overnight at 4° C. in a humidified chamber. […]
# SPA4 peptide (SEQ ID NO:3) inhibits the LPS-induced TLR4 expression in dendritic cells and SW480 intestinal (colonic) epithelial cells. […] First, it was determined if the SPA4 peptide inhibits LPS-induced expression of TLR4 in these cells. […]
# JAWS II dendritic cells = assay: LPS-induced TNF-α release by JAWS II dendritic cells (ELISA); format: cell-based, mouse; details: for LPS-induced TNF-α, mean values: post-LPS model
# Method: JAWS II dendritic cell culture: The JAWS II dendritic cell line is an immortalized cell line derived from bone marrow of C57BL/6 mice (ATCC, Manassas, Va.). The cells were maintained in Alpha-modified minimum essential medium (Sigma, St Louis, Mo.) supplemented with 20% fetal bovine serum (FBS), 4 mM L-glutamine, 100 U/ml penicillin, 100 μg/ml streptomycin, 50 μg/ml gentamicin (Invitrogen, Grand Island, N.Y.) and 5 ng/ml of recombinant murine granulocyte macrophage-colony stimulating factor (Peprotech, Rocky Hill, N.J.). (Awasthi et al., 2005). The culture medium was replaced with fresh medium every 48 h.
# The JAWS II dendritic cells (1 million) were treated with SP-A peptides (1 or 10 μM) with or without E. coli derived LPS (75 ng/ml, highly purified, low protein, Calbiochem, CA). In order to observe the anti-inflammatory properties of the SP-A peptides, the cells were treated with peptides for 1 hour prior to addition of LPS (pre-LPS treatment) or after 4 hours incubation with LPS (Post-LPS treatment). The incubation was continued for a total period of 5 hours. Control cells were treated with vehicle, LPS (75 ng/ml), and/or SP-A peptides (1 and 10 μM) for a period of 5 hours. The cell-free supernatants were collected and stored at −80° C. for further analysis.
# Cytokine (TNF-α) measurement: The TNF-α levels were measured in cell-free supernatants of JAWS II dendritic cells treated with LPS with or without SP-A peptides by enzyme linked immunosorbent assay (ELISA) as described earlier (Awasthi and Cox, 2003).
sequence,measurement,setting,value
"GDFRYSDGTPVNYTNWYRGE [SPA4, GDFRYSDGT PVNYTNWYRGE]",MYD88-independent NF-κB activity,NF-κB; JAWS II co-transfected with MYD88 dominant negative,does not affect
same,LPS-induced NF-κB activity in dendritic cells,"NF-κB; JAWS II, LPS 100 ng/ml 4 hours, SPA4 10 μM 1 hour",inhibits
same,LPS-induced migration of SW480 cells,SW480 cells,inhibited
same,basal TLR4 expression,TLR4,reduced the basal TLR4 expression
same,LPS-induced TLR4 expression,"TLR4; post-LPS treatment, p<0.05",suppressed significantly; also recorded: reduced LPS-induced TLR4 expression to a basal level
same,"secretion of TNF-α, post-LPS model","JAWS II dendritic cells; peptide added after 4 hours LPS 75 ng/ml, both 1 and 10 μM",inhibited the secretion of TNF-α
same,"LPS-induced TNF-α, mean values",JAWS II dendritic cells; 1 μM peptide,6448 pg/mL
same,"LPS-induced TNF-α, mean values",JAWS II dendritic cells; 10 μM peptide,6101 pg/mL
